Results reported in patent publication US8017791B2, “Tri-substituted 2-benzhydryl-5-benzylamino-tetrahydro-pyran-4-ol and 6-benzhydryl-4-benzylamino-tetrahydro-pyran-3-ol analogues, and novel, 3,6-disubstituted pyran derivatives” (Wayne State University, priority 2003, dated 2011).
“Also recorded” adds a separate entry of the source. Read-outs that look alike come from different tables or passages of the source.

Tests used:
DAT [1] = biological target: T1, DAT (Rattus norvegicus, UniProt P23977); test: Inhibition of [3H]WIN 35,428 binding to DAT
T1 construct: rat striatum was the source for DAT, and cerebral cortex for SERT and NET; from tissue; P2 synaptosomal fraction for uptake
T1 sequence (P23977 whole entry): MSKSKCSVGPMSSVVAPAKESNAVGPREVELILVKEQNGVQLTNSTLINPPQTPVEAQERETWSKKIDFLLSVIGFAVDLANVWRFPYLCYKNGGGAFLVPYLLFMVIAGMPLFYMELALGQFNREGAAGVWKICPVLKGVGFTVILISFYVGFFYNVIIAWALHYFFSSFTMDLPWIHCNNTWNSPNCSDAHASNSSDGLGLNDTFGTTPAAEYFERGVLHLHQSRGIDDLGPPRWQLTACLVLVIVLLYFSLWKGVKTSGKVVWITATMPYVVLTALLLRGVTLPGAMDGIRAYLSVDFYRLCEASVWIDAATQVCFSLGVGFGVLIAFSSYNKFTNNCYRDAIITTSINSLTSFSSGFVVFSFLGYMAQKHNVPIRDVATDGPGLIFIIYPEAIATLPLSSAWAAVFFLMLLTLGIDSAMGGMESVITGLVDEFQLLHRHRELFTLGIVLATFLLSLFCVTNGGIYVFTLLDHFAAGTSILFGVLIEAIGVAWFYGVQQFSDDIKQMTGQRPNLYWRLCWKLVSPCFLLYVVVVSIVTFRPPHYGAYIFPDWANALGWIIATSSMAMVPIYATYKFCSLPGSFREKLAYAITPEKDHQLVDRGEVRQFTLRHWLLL
Protocol: (§1) Biology. […] Briefly, rat striatum was the source for DAT, and cerebral cortex for SERT and NET. […] Test compounds were dissolved in dimethyl sulfoxide (DMSO) and diluted out in 10% (v/v) DMSO. […] At least five triplicate concentrations of each test compound were studied, spaced evenly around the IC50 value. For DAT uptake assays, uptake of 50 nM [^3H]DA into rat striatal synaptosomes was measured exactly as described by us previously. Briefly, rat striatal P2 membrane fractions were incubated with test compounds for 8 min followed by the additional presence of [^3H]DA for 4 min at 25?. […] Construction of inhibition curves and dissolvement of test compounds were as described above.

DAT [2] = biological target: T1, DAT; test: Inhibition of [3H]DA uptake by DAT into rat striatal synaptosomes; assay type: biochemical; conditions: for [3H]DA uptake/DAT binding: Table 3, ratio of IC50 values
Protocol: as §1

SERT [3] = biological target: T2, SERT (Rattus norvegicus, UniProt P31652); test: SERT uptake inhibition, [3H]5-HT; assay type: biochemical; conditions: for blockade of both SERT and NET (SNRI profile), in words: in vitro data
T2 construct: rat striatum was the source for DAT, and cerebral cortex for SERT and NET; from tissue; host or cells: rat cerebral cortex
T2 sequence (P31652 whole entry): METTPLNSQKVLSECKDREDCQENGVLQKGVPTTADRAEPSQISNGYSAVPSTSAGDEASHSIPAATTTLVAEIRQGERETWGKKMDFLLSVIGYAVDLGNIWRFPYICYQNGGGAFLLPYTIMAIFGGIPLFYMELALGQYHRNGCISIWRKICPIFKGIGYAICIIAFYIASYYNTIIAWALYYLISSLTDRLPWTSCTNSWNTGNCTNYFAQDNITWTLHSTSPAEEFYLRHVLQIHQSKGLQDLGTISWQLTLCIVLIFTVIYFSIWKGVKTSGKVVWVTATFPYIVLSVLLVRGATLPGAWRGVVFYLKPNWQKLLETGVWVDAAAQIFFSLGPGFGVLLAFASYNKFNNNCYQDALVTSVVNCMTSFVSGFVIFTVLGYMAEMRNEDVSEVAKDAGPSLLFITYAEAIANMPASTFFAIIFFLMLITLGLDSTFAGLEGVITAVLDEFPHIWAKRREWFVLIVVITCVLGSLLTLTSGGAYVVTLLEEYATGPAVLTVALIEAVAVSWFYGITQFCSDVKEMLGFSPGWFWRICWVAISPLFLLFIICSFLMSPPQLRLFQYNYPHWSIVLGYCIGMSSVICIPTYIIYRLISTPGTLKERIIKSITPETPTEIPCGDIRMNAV

NET (Rattus norvegicus) = biological target: T3, NET (Rattus norvegicus); test: NET uptake inhibition, [3H]NE; assay type: biochemical; conditions: Table 4; rat brain
T3 construct: from tissue
T3 sequence (Q63380 1-617): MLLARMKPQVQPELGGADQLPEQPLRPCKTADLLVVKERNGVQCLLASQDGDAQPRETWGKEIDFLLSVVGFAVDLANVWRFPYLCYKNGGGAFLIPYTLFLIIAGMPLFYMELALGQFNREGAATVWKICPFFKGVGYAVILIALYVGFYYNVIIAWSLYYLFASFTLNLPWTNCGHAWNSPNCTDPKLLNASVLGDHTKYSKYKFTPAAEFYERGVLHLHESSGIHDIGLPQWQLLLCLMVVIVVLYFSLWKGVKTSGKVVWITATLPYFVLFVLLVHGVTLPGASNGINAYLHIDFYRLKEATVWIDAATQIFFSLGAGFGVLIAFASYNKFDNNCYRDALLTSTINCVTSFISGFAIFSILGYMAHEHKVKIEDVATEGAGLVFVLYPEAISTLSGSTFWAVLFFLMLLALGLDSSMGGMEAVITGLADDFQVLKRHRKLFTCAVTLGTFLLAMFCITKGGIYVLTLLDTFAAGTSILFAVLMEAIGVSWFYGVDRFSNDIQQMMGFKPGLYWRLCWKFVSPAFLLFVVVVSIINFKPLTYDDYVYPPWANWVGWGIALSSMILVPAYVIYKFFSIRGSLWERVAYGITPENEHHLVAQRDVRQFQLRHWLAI

SERT [4] = biological target: T2, SERT; test: Inhibition of [3H]citalopram binding to SERT; conditions: for SERT binding/DAT binding: Table 3, selectivity ratio of IC50 values
Protocol: as §1

NET [5] = biological target: NET (Rattus norvegicus, UniProt Q9WTR4); test: Inhibition of [3H]nisoxetine binding to NET
Protocol: as §1

NET [6] = test: Inhibition of [3H]nisoxetine binding to NET; set-up: species or system rat; conditions: Table 3; selectivity ratio of IC50 values
Protocol: as §1

DAT [7] = biological target: T1, DAT; conditions: Table 2; values marked b: See reference # 22; read-out: DAT binding, IC50, [3H]Win 35,428; cited from earlier work
[8] = Table 4, rat brain, read-out: DAT binding, IC50, [3H]Win 35,428
[9] = Table 4, rat brain, read-out: DAT uptake, IC50 [3H]DA
[10] = Table 4, rat brain, read-out: SERT uptake, IC50 [3H]5-HT
[11] = Table 2, average ± SEM of three to eight experiments, read-out: DAT binding, IC50, [3H]Win 35,428
[12] = Table 2, average ± SEM, read-out: SERT binding, IC50 [3H]citalopram
[13] = Table 2, average ± SEM, read-out: NET binding, IC50 [3H]nisoxetine
[14] = Table 2, average ± SEM, read-out: DAT uptake, IC50 [3H]DA
[15] = Table 1, rat striatum, read-out: Inhibition of [3H]Win 35,428 binding to DAT IC50
[16] = Table 1, read-out: Inhibition of [3H]citalopram binding to SERT, IC50
[17] = Table 1, read-out: Inhibition of [3H]nisoxetine binding to NET, IC50

SMILES	IC50 (DAT [1]; [8])	IC50 (DAT [2]; [9])	IC50 (SERT [3]; [10])	IC50 (NET (Rattus norvegicus))	IC50 (SERT [4]; [12])	SERT binding/DAT binding (SERT [4])	IC50 (NET [5]; [13])	NET binding/DAT binding (NET [6])	IC50 (DAT [2]; [14])	other results
O[C@@H]1CO[C@H](C(c2ccccc2)c2ccccc2)C[C@H]1NCc1ccccc1 [(−)-29h, (3S,4R,6S)-6-benzhydryl-4-benzylamino-tetrahydropyran-3-ol]	4640 ± 1030 nM	2610 ± 140 nM	10000 nM	336 ± 33 nM						
Brc1ccc(CN[C@H]2CC[C@@H](C(c3ccccc3)c3ccccc3)OC2)cc1 (relative stereo) [Compound 16l, Cis-(6-benzhydryl-tetrahydropyran-3-yl)-(4-bromo-benzyl)-amine]					2360 ± 92 nM	11.69	592 ± 12 nM	2.93	251 ± 14 nM	IC50 (DAT [1]; [11]): 202 ± 13 nM; [3H]DA uptake/DAT binding (DAT [2]): 1.24
O[C@H]1C[C@H](C(c2ccccc2)c2ccccc2)OC[C@@H]1NCc1ccc(F)cc1 [(+)-29b, (2R,4S,5S)-2-benzhydryl-5-(4-fluoro-benzylamino)-tetrahydro-pyran-4-ol]				1130 ± 580 nM						IC50 (DAT [1]): 1030 ± 120 nM; IC50 (DAT [2]): 440 ± 30 nM; IC50 (SERT [3]): 5560 ± 640 nM
COc1ccc(CN[C@H]2C[C@H](C(c3ccccc3)c3ccccc3)OC[C@H]2O)cc1 [(+)-29g, (3S,4S,6R)-6-benzhydryl-4-(4-methoxy-benzylamino)-tetrahydropyran-3-ol]	3750 ± 620 nM	2670 ± 260 nM	3810 ± 460 nM	1840 ± 580 nM						
O[C@@H]1CO[C@@H](C(c2ccccc2)c2ccccc2)C[C@@H]1NCc1ccccc1 [(+)-29h, (3S,4S,6R)-6-benzhydryl-4-benzylamino-tetrahydropyran-3-ol]	1250 ± 100 nM	962 ± 97 nM	4420 ± 410 nM	3220 ± 570 nM						
COc1cc(CN[C@@H]2CO[C@H](C(c3ccccc3)c3ccccc3)C[C@H]2O)cc(OC)c1 [(−)-29f, (2S,4R,5R)-2-benzhydryl-5-(3,5-dimethoxy-benzylamino)-tetrahydropyran-4-ol]	298 ± 29 nM	135 ± 3 nM	25.4 ± 2 nM	108 ± 11 nM						blockade of both SERT and NET (SNRI profile), in words (SERT [3]; Table 4): potent blockers for both SERT and NET; blockade of both SERT and NET (SNRI profile), in words (SERT [3]; Table 4, listed as (−)29f): dual transport blockers
O[C@@H]1C[C@@H](C(c2ccccc2)c2ccccc2)OC[C@H]1NCCc1ccc(F)cc1 [(−)-29c, (2S,4R,5R)-2-benzhydryl-5-[2-(4-fluoro-phenyl)-ethylamino]-tetrahydropyran-4-ol]	1050 ± 40 nM	427 ± 67 nM	3570 ± 140 nM	439 ± 14 nM						
c1ccc(C(c2ccccc2)C2CCC(NCc3cc4ccccc4[nH]3)CO2)cc1 (stereo not drawn) [Compound 16g, Cis-(6-benzhydryl-tetrahydropyran-3-yl)-(2-indole-methyl)-amine]					1640 nM	7.2		1.8	135 ± 47.5 nM	fold more active at DAT compared to the 3-substituted 16f (DAT [1]): 3.5 fold; IC50 (DAT [1]; read-out: IC50 at the DAT): 227 nM; IC50 (NET [5]; read-out: IC50 for the NET): 401 nM; [3H]DA uptake/DAT binding (DAT [2]): 0.60
Ic1ccc(CN[C@H]2CC[C@@H](C(c3ccccc3)c3ccccc3)OC2)cc1 (relative stereo) [Compound 16m, Cis-(6-benzhydryl-tetrahydropyran-3-yl)-(4-iodo-benzyl)-amine]					2480 ± 145 nM	7.76	234 ± 17 nM	0.73	500 ± 34 nM	IC50 (DAT [1]; [11]): 319 ± 21 nM; [3H]DA uptake/DAT binding (DAT [2]): 1.56
COc1ccc(CN[C@@H]2C[C@@H](C(c3ccccc3)c3ccccc3)OC[C@@H]2O)cc1 [(−)-29g, (3R,4R,6S)-6-benzhydryl-4-(4-methoxy-benzylamino)-tetrahydro-pyran-3-ol]	771 ± 86 nM	822 ± 120 nM	1070 ± 100 nM	765 ± 34 nM						
Fc1ccc(CN[C@H]2CC[C@H](C(c3ccccc3)c3ccccc3)OC2)cc1 (relative stereo) [Compound 16a, trans-2-diphenylmethyl-5-(4-fluorobenzylamino)-tetrahydropyran]					8410 nM	26.9	12700 nM	40.6		activity at DAT, in words (DAT [1]): much weaker at DAT; IC50 (DAT [1]; [15]): 313 ± 71 nM; IC50 (SERT [4]; [16]): 8410 nM; IC50 (NET [5]; [17]): 12700 nM; IC50 (DAT [7]): 313 nM
O=[N+]([O-])c1ccc(CN[C@H]2CC[C@@H](C(c3ccccc3)c3ccccc3)OC2)cc1 (relative stereo) [Compound 16d, Cis-(6-benzhydryl-tetrahydropyran-3-yl)-(4-nitro-benzyl)-amine]									102 ± 7 nM	activity at DAT, in words (DAT [1]): the most active for the DAT; IC50 (DAT [1]; read-out: IC50 at the DAT): 38.3 nM; potency in inhibiting binding versus uptake, in words (DAT [2]; DA uptake assay compared with DAT binding): three fold higher potency in inhibiting binding than uptake; [3H]DA uptake/DAT binding (DAT [2]): 2.7; IC50 (DAT [7]): 38.3 nM
COc1ccc(CN[C@@H]2CO[C@H](C(c3ccccc3)c3ccccc3)C[C@H]2O)c(OC)c1 [(−)-29e, (2S,4R,5R)-2-benzhydryl-5-(2,4-dimethoxy-benzylamino)-tetrahydropyran-4-ol]	1060 nM	710 ± 130 nM	24 ± 4 nM	115 ± 14 nM						blockade of both SERT and NET (SNRI profile), in words (SERT [3]; Table 4): dual transport blockers; also recorded: potent blockers for both SERT and NET
O[C@H]1C[C@H](C(c2ccccc2)c2ccccc2)OC[C@@H]1NCCc1ccc(F)cc1 [(+)-29c, (2R,4S,5S)-2-benzhydryl-5-[2-(4-fluoro-phenyl)-ethylamino]-tetrahydropyran-4-ol]	443 ± 52 nM	218 ± 20 nM	2950 ± 380 nM	77.3 ± 3 nM						
Clc1ccc(CN[C@H]2CC[C@@H](C(c3ccccc3)c3ccccc3)OC2)cc1Cl (relative stereo) [Compound 16i, Cis-(6-benzhydryl-tetrahydropyran-3-yl)-(3,4-dichloro-benzyl)-amine]					780 ± 84 nM	1.9	144 ± 25 nM	0.36	880 ± 136 nM	IC50 (DAT [1]; [11]): 400 ± 31 nM
c1ccc(CN[C@H]2CC[C@@H](C(c3ccccc3)c3ccccc3)OC2)cc1 (relative stereo) [Compound 16k, Cis-(6-benzhydryl-tetrahydropyran-3-yl)-benzyl-amine]					1580 ± 97 nM	5.20	274 ± 29 nM	0.90	242 ± 39 nM	IC50 (DAT [1]; [15]): 303 ± 14 nM; IC50 (DAT [1]; [11]): 303 ± 14 nM; IC50 (SERT [4]; [16]): 1580 ± 97 nM; IC50 (NET [5]; [17]): 274 ± 29 nM; IC50 (DAT [2]; Table 1, read-out: Inhibition of [3H]DA uptake by DAT, IC50): 242 ± 39 nM; [3H]DA uptake/DAT binding (DAT [2]): 0.79
Fc1ccc(CN[C@H]2CC[C@@H](C(c3ccccc3)c3ccccc3)OC2)cc1F (relative stereo) [Compound 16j, Cis-(6-benzhydryl-tetrahydropyran-3-yl)-(3,4-difluoro-benzyl)-amine]					3520 nM	9.6	695 ± 142 nM	1.9		IC50 (DAT [1]; [11]): 368 ± 85 nM
